Consider 8 molecules from patent US20120232127A1, “REGULATION OF NEUROTRANSMITTER RELEASE THROUGH ANION CHANNELS” (KOREA INSTITUTE OF SCIENCE AND TECHNOLOGY, priority 2008, published 2012).

As usually defined, the IC50 is the concentration that inhibits the measured activity by half.

“Also recorded” adds a separate entry of the source.

The subject of test [1] is intracellular Ca2+ in cultured astrocytes. Description: Ca2+ imaging of TFLLR-induced [Ca2+]i transient in cultured astrocytes. In kind it is cell-based, mouse. As for the experimental part: (§1) The External solution was comprised of (in mM) 150 NaCl, 10 HEPES, 3 KCl, 2 CaCl2, 2 MgCl2, 5.5 glucose, at pH 7.3 (˜320 mOsm). For voltage clamp recordings, the internal solution contained 25 μg/ml gramicidin D and (in mM) 75 Cs2SO4, 10 NaCl, 0.1 CaCl2, and 10 HEPES, at pH 7.1 (˜310 mOsm). For current clamp recordings, the internal solution contained 25 μg/ml gramicidin D and (in mM) 75 K2SO4, 10 KCl, 0.1 CaCl2, and 10 HEPES, at pH 7.1 (˜310 mOsm). Pipette resistances ranged from 5 to 8 MΩ. For perforated patch clamp, it took 20 to 30 min to achieve acceptable perforation, with final series resistances ranging from 15 to 40 MΩ.
(§2) To test if activation of PAR1 by its specific agonist (e.g., TFLLR) causes any change in membrane conductance that might contribute to glutamate release from astrocytes, the whole cell currents and intracellular Ca^2+ responses in cultured astrocytes under gramicidin-D perforated patch configuration were simultaneously recorded (FIG. 1a). This technique minimized dialysis of intracellular ions.

Test [2] deals with Ca2+-activated anion channels (CAACs). The test is described as follows: Gramicidin-D perforated patch clamp of TFLLR-induced inward current in cultured astrocytes. The test is classed as cell-based, mouse. The method, then: as §1, §2
In test [3] the target is T1, Ca2+-activated anion channels (CAACs) (Mus musculus, UniProt O88870, R255K).
T1 construct: endogenous in cells; host or cells: cultured mouse cortical astrocytes
T1 sequence (O88870 1-551 R255K): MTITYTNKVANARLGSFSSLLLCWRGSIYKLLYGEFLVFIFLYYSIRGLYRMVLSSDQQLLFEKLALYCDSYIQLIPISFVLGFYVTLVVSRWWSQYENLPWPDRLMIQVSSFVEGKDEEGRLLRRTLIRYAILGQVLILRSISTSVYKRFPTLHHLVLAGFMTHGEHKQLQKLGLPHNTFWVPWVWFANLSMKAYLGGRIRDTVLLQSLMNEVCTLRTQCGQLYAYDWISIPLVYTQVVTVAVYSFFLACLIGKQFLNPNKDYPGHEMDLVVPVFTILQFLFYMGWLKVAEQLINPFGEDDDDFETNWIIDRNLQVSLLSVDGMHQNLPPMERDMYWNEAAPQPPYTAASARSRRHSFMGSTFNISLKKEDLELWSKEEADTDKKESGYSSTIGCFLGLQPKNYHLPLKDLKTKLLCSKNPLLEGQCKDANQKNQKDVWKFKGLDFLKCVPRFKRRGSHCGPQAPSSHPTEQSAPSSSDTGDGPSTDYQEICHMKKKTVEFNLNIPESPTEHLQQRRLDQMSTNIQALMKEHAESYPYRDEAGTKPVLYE
The description is as above. In kind it is cell-based. The conditions noted are these: for block of TFLLR-induced current: 100 μM blocker, cultured astrocytes; for block of the current by CAACs: astrocytes. The method, then:
as §1, §2

Test [4] relates to glutamate release from cultured astrocytes. Description: TFLLR-evoked efflux of radiotracer from [3H]-glutamate-loaded cultures. In kind it is cell-based.
In a further test the target is T2, astrocytic CAACs (Mus musculus, UniProt O88870, R255K).
T2 construct: endogenous in cells; host or cells: cultured mouse cortical astrocytes
T2 sequence (O88870 1-551 R255K): T1 sequence (O88870 1-551 R255K)
The test is described as follows: Whole-cell patch clamp, astrocytic CAAC current directly activated by 4.5 μM internal Ca2+. In kind it is cell-based. The settings on record: internal solution with 4.5 μM Ca2+. The method, then: Patch pipettes which have 3-6MΩ of resistance are filled with the standard intracellular solution. Current voltage curves were established by applying 100- or 200-ms-duration voltage ramps from −100 to +100 mV. […]. Data were acquired by an Axopatch 200A amplifier controlled by Clampex 9.0 via a Digidata 1322A data acquisition system (Molecular Devices). Experiments were conducted at room temperature (20˜24° C.). The standard pipette solution was comprised of (in mM) 146 CsCl, 2 MgCl2, 5 (Ca^2+)-EGTA, 8 HEPES, and 10 sucrose, at pH 7.3, adjusted with CsOH. The concentration of free [Ca^2+]i in the solution was determined (Kuruma, A. & Hartzell, H. C. Bimodal control of a Ca(^2+)-activated Cl(−) channel by difference Ca(^2+) signals. J Gen Physiol 115, 59-80 (2000), which is hereby incorporated by reference for all purposes as if fully set forth herein). The standard extracellular solution was comprised of (in mM) 140 NaCl, 5 KCl, 2 CaCl2, 1 MgCl2, 15 glucose, and 10 HEPES, with pH 7.3 as adjusted using NaOH.
Because CAACs can permeate large anions and could be directly activated by applying internal solutions with known Ca^2+ concentrations, it was tested whether astrocytic CAACs can permeate glutamate by directly applying internal solutions containing 4.5 μM of Ca^2+ at which level CAACs are maximally activated (FIG. 10).

For test [5], the target named is T3, astrocytic CAAC / mBest1 channel (glutamate release) (Mus musculus, UniProt O88870, R255K).
T3 construct: endogenous in cells; host or cells: cultured mouse cortical astrocytes
T3 sequence (O88870 1-551 R255K): T1 sequence (O88870 1-551 R255K)
The test is described as follows: Sniffer patch: astrocyte to GluR1 (L497Y)-expressing HEK293T cell pairs, TFLLR-induced glutamate release. In kind it is cell-based. The conditions noted are these: sniffer patch, cultured astrocytes as glutamate source. As for the experimental part: The sniffer patch technique, which is used for determining whether or not one is permeable to glutamate, was performed as described in Lee, C. J. et al. Astrocytic control of synaptic NMDA receptors. J Physiol 581, 1057-81 (2007), which is hereby incorporated by reference for all purposes as if fully set forth herein.
2. In experiments using astrocyte-HEK293T cell pairs, the sniffer patch techniques used naïve, scrambled- or mBest1-specific shRNA expressing (with GFP) astrocytes as a glutamate source; and GluR1 (L497Y) expressing HEK293T cells (with DsRED) as a detector. After obtaining gigaohm sealing, GluR1 (L497Y)-expressing cell was firstly ruptured, and then counterpart astrocytes were pressure-applied with 500 uM of TFLLR to evoke an increase in astrocytic intracellular Ca^2+ and resulting glutamate release onto the adjacent HEK293T cells.
GluR1LY-expressing detector cells were patched with the pipette solution pH 7.3 containing 110 mM CsGluconate, 30 mM CsCl, 5 mM HEPES, 4 mM NaCl, 2 mM MgCl2, 5 mM EGTA, and 1 mM CaCl2. The percentage of GluR1 (L497Y)-mediated current to the full activation level was analyzed by dividing the current amplitude of GluR1 (L497Y) current obtained through sniffer patch measurement by that of fully activated GluR1 (L497Y) current in the same cells.
The glutamate release through astrocytic CAACs was examined by using “sniffer-patch” technique and recording real-time glutamate release from cultured astrocytes (FIG. 10a). Using this technique, the present inventors observed that TFLLR-induced astrocytic glutamate release into an adjacent HEK293T cells expressing the non-desensitizing AMPA receptor subunit GluR1 (L497Y) mutant evoked an inward current sensitive to AMPA receptor antagonists, which is interpreted to reflect release of glutamate. The effects of TFLLR on current responses in transfected HEK293T cells was blocked by the treatment of niflumic acid (% block by niflumic acid=66.6±5.7%, FIGS. 10d to 10f), which is consistent with the idea that astrocytic CAAC is permeable to glutamate.

In test [6] the target is T4, Ca2+-activated anion channels (CAACs) (Mus musculus, UniProt O88870).
T4 construct: endogenous in cells; host or cells: cultured mouse cortical astrocytes
T4 sequence (O88870 1-551 R255K): T1 sequence (O88870 1-551 R255K)
The test is described as follows: Gramicidin-D perforated patch clamp of TFLLR-induced inward current in cultured astrocytes. The test is classed as cell-based. The conditions noted are these: cultured astrocytes, voltage-independent block. As for the experimental part:
as §1, §2

For another test, the system named is NMDA receptor (NMDAR). The test is described as follows: Voltage clamp of NMDAR-mediated mEPSC decay and NMDAR-mediated current.
In test [7] the test system is CAACs expressed in Xenopus laevis oocytes. The conditions noted are these: read-out: reported IC50 value for CAACs expressed in Xenopus laevis oocytes; cited from earlier work.
Test [8] concerns evoked EPSPs in hippocampal slices. The test is described as follows: Current clamp of evoked EPSPs, Schaffer collateral to CA1 pyramidal neuron synapse in hippocampal slices. The settings on record: 30 μM niflumic acid. The method, then:
To assess whether CAAC-dependent glutamate release in astrocytes occurs and enhances synaptic potentials in vivo, a series of current clamp experiments were carried out to directly measure the effects of CAAC-dependent glutamate release on the evoked EPSPs (eEPSPs) of the Schaffer collateral to CA1 pyramidal neuron synapse in hippocampal slices. Under the similar recording conditions as previously described in ‘Lee, C. J. et al. Astrocytic control of synaptic NMDA receptors.

Setting [9] is: BAPTA-AM, 50 μM preincubation for 30 min.
The mark [10] stands for this setting: U73122 2 μM, preincubation 10 min.
Setting [11] is: thapsigargin 100 nM, preincubation 5 min.
Setting [12] is: thapsigargin 100 nM, preincubation 5 min, listed as Thapsigargin.

In the case of `CC(=O)OCOC(=O)CN(CC(=O)OCOC(C)=O)c1ccccc1OCCOc1ccccc1N(CC(=O)OCOC(C)=O)CC(=O)OCOC(C)=O` [BAPTA-AM], the “effect on TFLLR-induced [Ca2+]i transient” value in test [1] (setting [9]) is “eliminated; also recorded: inhibition”. The “effect on TFLLR-induced current” value in test [2] (setting [9]) is reported as “eliminated; also recorded: inhibition”.

Regarding `O=C(O)c1cc([N+](=O)[O-])ccc1NCCCc1ccccc1` [NPPB, 5-nitro-2(3-phenylpropylamino)-benzoic acid], the “block of TFLLR-induced current” value in [3] is “blocked”.

Consider `COc1ccc2c(c1)CC[C@@H]1[C@@H]2CC[C@]2(C)[C@@H](NCCCCCCN3C(=O)C=CC3=O)CC[C@@H]12` [U73122], for which the “effect on TFLLR-induced [Ca2+]i increase” value in [1] (setting [10]) is “reduced; also recorded: inhibition”. Further, in [2] (setting [10]), the “effect on TFLLR-induced inward current” value is on record as “reduced; also recorded: inhibition”.

Take `CC1(C)[C@@H](OC(=O)CCC(=O)O)CC[C@]2(C)[C@H]3C(=O)C=C4[C@@H]5C[C@@](C)(C(=O)O)CC[C@]5(C)CC[C@@]4(C)[C@]3(C)CC[C@@H]12` [carbenoxolone]: the “block of the current by CAACs” value in [3] (100 μM) is “did not block”.

Turning to `O=C(O)c1ccccc1Nc1cccc(C(F)(F)F)c1` [flufenamic acid], in test [3], the “block of TFLLR-induced current” value was “blocked”. Moreover, the “inhibition of TFLLR-evoked efflux of radiotracer from [3H]-glutamate-loaded cultures” value in [4] is listed as 57%.

As to `O=C(O)c1cccnc1Nc1cccc(C(F)(F)F)c1` [niflumic acid], on astrocytic CAACs, the “block of directly activated non-desensitizing CAAC current” value is on record as “readily blocked”. For the same molecule, in [5], the “% block of TFLLR effect on current responses in GluR1 (L497Y)-transfected HEK293T cells” value is reported as 66.6±5.7%. Besides, the “effect on TFLLR-induced increases in intracellular Ca2+” value in test [1] (100 μM niflumic acid, n=5) is reported as “attenuated but did not completely block”. Besides, the “block of TFLLR-induced current” value in test [3] is on record as “blocked; also recorded: inhibited”; in [3] (listed as Niflumic acid), “blocked”. Besides, the IC50 in test [6] is 9.8 µM; in test [7], 10.1 µM. For the same molecule, the “effect on NMDAR-mediated current amplitude” value in the test with NMDA receptor (NMDAR) is “minimally affected”. The “TFLLR-induced prolongation of slow NMDAR-mediated component of mEPSC decay” value in the test on NMDA receptor (NMDAR) (voltage clamp) is “sensitive”. In addition, in [8], the “effect on TFLLR enhancement of eEPSP” value was “blocked; also recorded: not statistically significant”. In addition, in test [4], the “inhibition of TFLLR-evoked efflux of radiotracer from [3H]-glutamate-loaded cultures” value was found to be 69%.

As to `C/C=C(/C)C(=O)O[C@H]1C(C)=C2[C@H]([C@@H]1OC(=O)CCCCCCC)[C@@](C)(OC(C)=O)C[C@H](OC(=O)CCC)[C@@]1(O)[C@H]2OC(=O)[C@@]1(C)O` [thapsigargin], the results for the “effect on TFLLR-induced [Ca2+]i increase” value in test [1] (setting [11]) and in test [1] (setting [12]) were “reduced” and “inhibition”, respectively. The “effect on TFLLR-induced inward current” value in [2] (setting [11]) is listed as “reduced”; in test [2] (setting [12]) it was “inhibition”.

As to chlorotoxin, in test [3] (1 μM), the “block of the current by CAACs” value is listed as “did not block”.
